Target: SARS-CoV PLpro (Severe acute respiratory syndrome coronavirus, UniProt P0C6X7)
Format: cell-based

SMILES: CC(=O)Nc1cccc(CNC(=O)C2CCN([C@H](C)c3cccc4ccccc34)CC2)c1 [compound 3e]
- Effect on SARS-CoV PLpro activity in the biosensor assay: blocks
